Measured values as given in the CheMixHub drug solubility set.

Assay: xn = mol fraction of the nth substance listed, in the solute-free solvent

Nc1ccc(Oc2ccc(N)cc2)cc1 + CC(=O)N(C)C + CCO
solubility (g/100 g solution)
Conditions	293.15 K	298.15 K	303.15 K	308.15 K	313.15 K	318.15 K	323.15 K	328.15 K	333.15 K
x2 = 0.0555	0.741	0.782	0.905	1.15	1.39	1.68	1.96	2.28	2.64
x2 = 0.1168	1.32	1.4	1.59	1.94	2.32	2.66	3	3.15	4.12
x2 = 0.1848	2.35	2.56	2.88	3.13	3.63	4.09	4.68	4.75	6.13
x2 = 0.2606	3.91	4.24	4.6	5.13	5.62	6.3	7.13	7.67	8.79
x2 = 0.3459	6.23	6.74	7.16	7.94	8.38	9.29	10.3	11	12.2
x2 = 0.4423	9.4	10	10.6	11.4	12	13.1	14	15.2	16.3
x2 = 0.5523	13.3	14.1	14.8	15.3	16.3	17.5	18.6	19.7	21.1
x2 = 0.679	17.9	18.6	19.3	20.2	21	22	23.2	24.2	25.1
x2 = 0.8264	22.6	23.5	24	24.5	25.6	26.7	27.4	28.7	30

CN1CCN(C2=Nc3cc(Cl)ccc3Nc3ccccc32)CC1 + CC(C)=O + Cc1ccccc1
solubility (g/100 g solution)
Conditions	x2 = 0.1503	x2 = 0.2841	x2 = 0.4047	x2 = 0.5141	x2 = 0.6136	x2 = 0.7038	x2 = 0.7876	x2 = 0.8642	x2 = 0.9343
293.15 K	4.2	5.72	6.98	7.87	8.37	8.49	8.42	8.02	7.41
298.15 K	4.59	6.06	7.92	8.77	9.44	9.83	9.53	9.03	8.42
303.15 K	5.42	7.16	8.86	9.9	10.6	10.7	9.99	9.78	8.81
308.15 K	6.11	8.41	9.86	10.9	11.9	12.3	11.6	11.3	10.4
313.15 K	7.38	9.81	11.5	12.7	13.4	13.6	13.4	12.9	11.9
318.15 K	8.97	11.4	13.2	14.3	15.4	15.3	15.5	14.8	13.4
